Experiment in all cases: KINOMEscan competition binding
The target of one assay is AMPK-alpha2 (Homo sapiens, UniProt P54646). The following applies: read-out: %Inh AMPK-alpha2.
The next assay deals with JNK1 (Homo sapiens, UniProt P45983). As to conditions: read-out: %Inh JNK1.
For the next assay, the target named is T1, ERK8 (Homo sapiens, UniProt Q8TD08).
T1 sequence (Q8TD08 1-544): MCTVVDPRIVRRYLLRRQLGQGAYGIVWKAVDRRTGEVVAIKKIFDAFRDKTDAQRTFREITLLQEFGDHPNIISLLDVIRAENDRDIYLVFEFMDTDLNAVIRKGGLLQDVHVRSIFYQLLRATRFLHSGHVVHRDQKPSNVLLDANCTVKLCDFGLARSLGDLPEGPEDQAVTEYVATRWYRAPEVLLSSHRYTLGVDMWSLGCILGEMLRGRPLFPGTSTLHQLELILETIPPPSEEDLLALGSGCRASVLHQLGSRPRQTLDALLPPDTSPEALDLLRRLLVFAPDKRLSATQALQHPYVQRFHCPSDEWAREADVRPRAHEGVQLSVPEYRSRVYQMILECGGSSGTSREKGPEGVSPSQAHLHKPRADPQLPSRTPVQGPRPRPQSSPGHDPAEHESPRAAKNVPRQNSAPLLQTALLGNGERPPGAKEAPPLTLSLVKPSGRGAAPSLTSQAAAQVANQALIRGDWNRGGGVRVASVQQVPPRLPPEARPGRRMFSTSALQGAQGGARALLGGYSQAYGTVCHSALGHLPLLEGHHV
As to conditions: read-out: %Inh ERK8.

In a further assay the target is FLT4 (Homo sapiens, UniProt P35916). As to conditions: read-out: %Inh FLT4.
Sequence of FLT4 (P35916 25-1363): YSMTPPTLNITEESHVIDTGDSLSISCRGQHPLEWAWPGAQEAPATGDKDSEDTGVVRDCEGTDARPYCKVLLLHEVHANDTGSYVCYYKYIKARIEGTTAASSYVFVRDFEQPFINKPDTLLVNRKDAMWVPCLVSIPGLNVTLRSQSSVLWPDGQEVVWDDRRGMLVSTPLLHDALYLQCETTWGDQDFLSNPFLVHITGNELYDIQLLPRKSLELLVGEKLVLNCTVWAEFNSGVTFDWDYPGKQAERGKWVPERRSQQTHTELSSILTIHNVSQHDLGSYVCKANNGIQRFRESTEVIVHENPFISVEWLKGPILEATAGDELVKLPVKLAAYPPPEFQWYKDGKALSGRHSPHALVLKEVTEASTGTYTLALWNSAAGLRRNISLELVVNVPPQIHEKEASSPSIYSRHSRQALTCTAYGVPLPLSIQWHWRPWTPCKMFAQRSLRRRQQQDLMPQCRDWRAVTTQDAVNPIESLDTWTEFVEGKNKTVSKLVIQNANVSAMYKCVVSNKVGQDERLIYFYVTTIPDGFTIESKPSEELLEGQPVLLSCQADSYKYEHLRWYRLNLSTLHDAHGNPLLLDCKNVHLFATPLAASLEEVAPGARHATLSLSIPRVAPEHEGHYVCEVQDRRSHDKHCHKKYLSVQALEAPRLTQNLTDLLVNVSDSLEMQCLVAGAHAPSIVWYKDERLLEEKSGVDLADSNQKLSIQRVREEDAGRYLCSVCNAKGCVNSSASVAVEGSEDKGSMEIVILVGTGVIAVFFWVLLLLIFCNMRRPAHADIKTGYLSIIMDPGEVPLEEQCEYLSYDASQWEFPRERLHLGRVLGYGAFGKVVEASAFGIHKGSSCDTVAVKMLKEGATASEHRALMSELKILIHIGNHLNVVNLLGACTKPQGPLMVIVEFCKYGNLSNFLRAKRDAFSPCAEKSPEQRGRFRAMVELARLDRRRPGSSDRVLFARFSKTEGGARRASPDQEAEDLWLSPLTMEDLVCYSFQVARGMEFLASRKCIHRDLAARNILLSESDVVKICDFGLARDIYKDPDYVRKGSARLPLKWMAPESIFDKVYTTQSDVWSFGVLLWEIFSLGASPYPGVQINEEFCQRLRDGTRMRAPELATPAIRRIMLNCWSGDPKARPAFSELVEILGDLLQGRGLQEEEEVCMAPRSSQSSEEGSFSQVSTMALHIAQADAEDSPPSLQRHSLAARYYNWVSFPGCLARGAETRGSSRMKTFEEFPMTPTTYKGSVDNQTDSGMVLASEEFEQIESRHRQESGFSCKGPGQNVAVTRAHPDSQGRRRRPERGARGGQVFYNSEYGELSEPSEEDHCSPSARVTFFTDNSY
For another assay, the target named is T2, GRK7 (Homo sapiens, UniProt Q8WTQ7).
T2 sequence (Q8WTQ7 1-553): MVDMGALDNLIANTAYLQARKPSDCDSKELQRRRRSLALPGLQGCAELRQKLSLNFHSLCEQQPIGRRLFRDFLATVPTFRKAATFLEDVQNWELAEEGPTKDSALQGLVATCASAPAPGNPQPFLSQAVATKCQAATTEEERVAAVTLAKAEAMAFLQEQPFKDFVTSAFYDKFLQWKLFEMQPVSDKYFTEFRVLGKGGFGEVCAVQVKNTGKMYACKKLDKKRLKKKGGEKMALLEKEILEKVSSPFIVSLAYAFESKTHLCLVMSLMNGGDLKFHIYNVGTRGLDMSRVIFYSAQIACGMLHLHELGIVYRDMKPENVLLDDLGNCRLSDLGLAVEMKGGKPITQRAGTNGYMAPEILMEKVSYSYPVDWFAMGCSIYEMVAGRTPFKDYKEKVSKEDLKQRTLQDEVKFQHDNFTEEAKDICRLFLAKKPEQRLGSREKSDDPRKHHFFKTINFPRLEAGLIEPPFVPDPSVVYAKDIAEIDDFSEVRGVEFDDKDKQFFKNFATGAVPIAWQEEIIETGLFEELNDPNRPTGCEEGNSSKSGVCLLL
As to conditions: read-out: %Inh GRK7.

The next assay has as its target LRRK2 (Homo sapiens, UniProt Q5S007). The following applies: read-out: %Inh LRRK2.
The next assay has as its target T3, DMPK (Homo sapiens, UniProt Q09013).
T3 sequence (Q09013 1-629): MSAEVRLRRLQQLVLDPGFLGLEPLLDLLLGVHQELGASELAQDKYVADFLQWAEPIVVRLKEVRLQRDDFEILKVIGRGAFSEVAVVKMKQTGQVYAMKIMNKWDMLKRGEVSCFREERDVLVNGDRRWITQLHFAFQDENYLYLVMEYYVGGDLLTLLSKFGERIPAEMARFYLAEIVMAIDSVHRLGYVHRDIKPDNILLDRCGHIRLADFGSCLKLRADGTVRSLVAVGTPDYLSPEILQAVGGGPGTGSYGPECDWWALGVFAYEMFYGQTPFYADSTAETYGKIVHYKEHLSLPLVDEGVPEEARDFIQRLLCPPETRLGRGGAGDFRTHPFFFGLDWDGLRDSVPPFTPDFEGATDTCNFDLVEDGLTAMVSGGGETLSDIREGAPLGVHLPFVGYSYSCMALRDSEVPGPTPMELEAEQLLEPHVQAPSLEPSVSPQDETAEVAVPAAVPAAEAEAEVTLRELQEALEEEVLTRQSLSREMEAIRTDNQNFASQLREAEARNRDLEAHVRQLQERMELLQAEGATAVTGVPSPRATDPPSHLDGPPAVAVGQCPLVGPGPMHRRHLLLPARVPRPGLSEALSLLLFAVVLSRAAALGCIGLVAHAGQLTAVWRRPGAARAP
The following applies: read-out: %Inh DMPK.

The target in another assay is BUB1 (Homo sapiens, UniProt O43683). The following applies: read-out: %Inh BUB1.
A further assay deals with LYN (Homo sapiens, UniProt P07948). The following applies: read-out: %Inh LYN.

The structures appear in SMILES notation.

The values below come from article PMC5540273, “Progress towards a public chemogenomic set for protein kinases and a call for contributions” (PLoS ONE, 2017).

Sequence of LRRK2 (Q5S007 whole entry): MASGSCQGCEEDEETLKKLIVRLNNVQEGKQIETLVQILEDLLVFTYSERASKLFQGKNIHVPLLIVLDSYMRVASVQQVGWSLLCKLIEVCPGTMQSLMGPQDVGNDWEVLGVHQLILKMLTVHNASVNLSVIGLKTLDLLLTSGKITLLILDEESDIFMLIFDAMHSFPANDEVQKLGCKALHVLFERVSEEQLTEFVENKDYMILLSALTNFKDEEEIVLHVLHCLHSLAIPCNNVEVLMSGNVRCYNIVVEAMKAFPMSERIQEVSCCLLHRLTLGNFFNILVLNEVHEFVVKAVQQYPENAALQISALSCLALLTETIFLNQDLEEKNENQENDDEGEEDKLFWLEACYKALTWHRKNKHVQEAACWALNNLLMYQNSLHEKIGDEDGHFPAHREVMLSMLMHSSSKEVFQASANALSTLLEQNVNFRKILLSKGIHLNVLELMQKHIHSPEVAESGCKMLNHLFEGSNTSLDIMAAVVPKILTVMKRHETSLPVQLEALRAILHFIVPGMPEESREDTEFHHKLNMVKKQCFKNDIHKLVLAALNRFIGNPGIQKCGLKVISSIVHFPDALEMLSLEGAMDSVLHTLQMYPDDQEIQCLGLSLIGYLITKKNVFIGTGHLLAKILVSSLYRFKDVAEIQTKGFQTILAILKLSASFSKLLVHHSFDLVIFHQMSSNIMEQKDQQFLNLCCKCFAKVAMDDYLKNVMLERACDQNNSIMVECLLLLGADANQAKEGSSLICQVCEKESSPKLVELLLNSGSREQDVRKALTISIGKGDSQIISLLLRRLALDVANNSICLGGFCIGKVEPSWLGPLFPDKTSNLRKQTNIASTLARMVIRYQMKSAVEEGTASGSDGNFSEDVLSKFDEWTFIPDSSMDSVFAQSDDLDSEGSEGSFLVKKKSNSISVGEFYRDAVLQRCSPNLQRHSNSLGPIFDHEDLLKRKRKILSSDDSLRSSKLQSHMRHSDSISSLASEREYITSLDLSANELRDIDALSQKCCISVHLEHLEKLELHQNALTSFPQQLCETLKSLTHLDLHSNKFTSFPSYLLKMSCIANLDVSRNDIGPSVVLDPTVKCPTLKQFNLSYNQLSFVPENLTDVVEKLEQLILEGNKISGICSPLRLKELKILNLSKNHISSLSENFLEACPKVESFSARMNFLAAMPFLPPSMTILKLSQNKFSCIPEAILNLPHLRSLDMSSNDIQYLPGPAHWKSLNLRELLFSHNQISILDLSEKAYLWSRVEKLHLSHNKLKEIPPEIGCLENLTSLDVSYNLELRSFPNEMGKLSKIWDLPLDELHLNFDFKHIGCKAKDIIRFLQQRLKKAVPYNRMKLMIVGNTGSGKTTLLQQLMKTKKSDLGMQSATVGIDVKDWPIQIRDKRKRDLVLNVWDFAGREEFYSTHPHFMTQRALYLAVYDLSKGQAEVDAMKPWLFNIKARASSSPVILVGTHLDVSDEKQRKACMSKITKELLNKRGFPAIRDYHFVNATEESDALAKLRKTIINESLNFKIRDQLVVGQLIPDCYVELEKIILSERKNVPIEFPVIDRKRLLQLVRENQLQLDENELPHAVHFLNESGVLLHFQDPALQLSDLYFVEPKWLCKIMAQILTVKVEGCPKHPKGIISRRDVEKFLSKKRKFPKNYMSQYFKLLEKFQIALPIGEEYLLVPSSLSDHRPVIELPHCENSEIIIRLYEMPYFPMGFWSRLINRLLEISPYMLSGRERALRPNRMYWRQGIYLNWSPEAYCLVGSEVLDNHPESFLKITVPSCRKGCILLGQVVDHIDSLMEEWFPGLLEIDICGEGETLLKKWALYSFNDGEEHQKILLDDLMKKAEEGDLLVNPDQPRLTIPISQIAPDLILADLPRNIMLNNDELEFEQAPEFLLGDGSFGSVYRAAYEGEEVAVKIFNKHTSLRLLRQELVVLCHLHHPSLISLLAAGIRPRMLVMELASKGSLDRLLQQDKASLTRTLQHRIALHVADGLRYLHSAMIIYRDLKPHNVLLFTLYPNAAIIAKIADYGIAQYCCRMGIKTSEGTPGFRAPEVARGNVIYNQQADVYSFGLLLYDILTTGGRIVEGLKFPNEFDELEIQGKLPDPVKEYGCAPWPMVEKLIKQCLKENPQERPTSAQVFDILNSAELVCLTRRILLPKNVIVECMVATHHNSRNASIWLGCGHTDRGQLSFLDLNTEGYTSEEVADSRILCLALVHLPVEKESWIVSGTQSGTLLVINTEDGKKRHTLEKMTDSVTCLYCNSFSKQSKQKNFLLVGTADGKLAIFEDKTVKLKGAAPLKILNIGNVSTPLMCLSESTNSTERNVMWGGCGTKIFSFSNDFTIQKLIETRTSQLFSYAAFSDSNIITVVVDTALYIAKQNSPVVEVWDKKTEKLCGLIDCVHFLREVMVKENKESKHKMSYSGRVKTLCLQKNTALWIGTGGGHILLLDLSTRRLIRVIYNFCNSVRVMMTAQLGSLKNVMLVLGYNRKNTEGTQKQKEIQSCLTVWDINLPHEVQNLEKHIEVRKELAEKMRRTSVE
Sequence of JNK1 (P45983 whole entry): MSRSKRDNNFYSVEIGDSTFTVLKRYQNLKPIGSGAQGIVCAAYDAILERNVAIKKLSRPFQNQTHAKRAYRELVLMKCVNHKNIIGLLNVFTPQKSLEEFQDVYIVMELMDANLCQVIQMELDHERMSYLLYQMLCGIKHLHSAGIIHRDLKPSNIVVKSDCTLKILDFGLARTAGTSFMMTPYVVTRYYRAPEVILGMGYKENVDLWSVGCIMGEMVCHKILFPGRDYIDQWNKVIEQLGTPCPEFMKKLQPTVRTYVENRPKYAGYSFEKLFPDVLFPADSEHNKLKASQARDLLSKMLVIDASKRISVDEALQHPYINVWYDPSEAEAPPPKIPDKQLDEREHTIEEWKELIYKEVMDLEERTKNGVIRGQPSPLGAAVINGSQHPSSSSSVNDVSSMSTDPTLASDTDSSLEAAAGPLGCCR
Sequence of AMPK-alpha2 (P54646 whole entry): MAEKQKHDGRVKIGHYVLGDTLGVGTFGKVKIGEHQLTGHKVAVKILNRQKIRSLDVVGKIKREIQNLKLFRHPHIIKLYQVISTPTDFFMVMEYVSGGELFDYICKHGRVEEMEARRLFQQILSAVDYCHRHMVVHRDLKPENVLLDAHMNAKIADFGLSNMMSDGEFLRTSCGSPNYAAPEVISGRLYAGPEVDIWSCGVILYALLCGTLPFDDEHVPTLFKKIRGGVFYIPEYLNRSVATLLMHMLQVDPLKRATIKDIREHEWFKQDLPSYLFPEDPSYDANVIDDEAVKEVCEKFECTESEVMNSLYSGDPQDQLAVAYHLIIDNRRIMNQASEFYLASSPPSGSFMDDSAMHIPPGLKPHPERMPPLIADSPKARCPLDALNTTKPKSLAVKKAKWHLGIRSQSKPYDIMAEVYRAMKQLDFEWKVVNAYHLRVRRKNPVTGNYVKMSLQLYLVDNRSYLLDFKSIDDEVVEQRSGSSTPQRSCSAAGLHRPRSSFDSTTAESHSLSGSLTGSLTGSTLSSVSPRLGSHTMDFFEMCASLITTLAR

In the case of `Cn1cc(-c2cnc(N)c3c(-c4ccc5c(c4)CCN5C(=O)Cc4ccccc4)csc23)cn1` [UNC10225012A], the inhibition at 1 µM on AMPK-alpha2 came out at 0%; on JNK1 it was 13%; on ERK8, 11%; on FLT4, 31%; on GRK7 it was 6%; on LRRK2, 3%. For the same molecule, the inhibition at 1 µM on DMPK turned out to be 0%; on BUB1 it was 0%; on LYN it was 65%.

On to `CS(=O)(=O)Cc1ccc(Nc2nccc(-c3c(-c4cccc(NC(=O)C5CCCCC5)c4)nn4ncccc34)n2)cc1` [UNC10225159A], for which the inhibition at 1 µM on AMPK-alpha2 stood at 2%; at JNK1, 43%; at ERK8 it was 0%; at FLT4 it was 52%; on GRK7, 5%; on LRRK2, 20%. For the same molecule, the inhibition at 1 µM on DMPK came to 0%; on BUB1 it was 98.7%; at LYN, 16%.

In the case of `Cc1ccc(NC(=O)Nc2cccc(C(F)(F)F)c2)cc1` [UNC10225187A], the inhibition at 1 µM at AMPK-alpha2 amounted to 0%; on JNK1, 58%; at ERK8, 0%; on FLT4 it was 12%; on GRK7, 10%; on LRRK2, 0%. The inhibition at 1 µM at DMPK, at BUB1 and at LYN was 0% each time.

Consider `COc1cccc(OC)c1C(=O)Nc1cccc(-c2nn3ccccc3c2-c2ccnc(Nc3cccc(F)c3)n2)c1` [UNC10225310A], for which the inhibition at 1 µM at AMPK-alpha2 stood at 4%; at JNK1, 44%; on ERK8, 3%; at FLT4, 27%; at GRK7 it was 17%; on LRRK2, 0%. The inhibition at 1 µM on DMPK was 2%; at BUB1, 11%; at LYN it was 8%.

Take `O=c1cc(N2CCOCC2)nc2n(Cc3cccc(Cl)c3Cl)c(C3CC3)nn12` [UNC10225469A]: the inhibition at 1 µM stood at 0% on AMPK-alpha2; 19% on JNK1; 13% on ERK8; 10% on FLT4; 0% at GRK7; 0% on LRRK2. The inhibition at 1 µM at DMPK, on BUB1 and at LYN was 0% throughout.
